According to ChEMBL document CHEMBL1201862, “PubChem BioAssay data set” (2004):
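Following 48 hours of exposure in 96-well plates, responses at five concentrations were used to interpolate endpoints linearly. At the GI50, growth is halved.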 Activity calls are given as the source filed them. Cut-off read from the data, not from the text of the source: active = GI50 up to about 1.1 µM and inactive = higher.

How the values were obtained:
Test in all cases: DTP human tumour cell line panel, 48 h
HCT-116 = test system: HCT-116
IGROV-1 = test system: IGROV-1
Malme-3M = test system: Malme-3M
HT-29 = test system: HT-29
SK-MEL-28 = test system: SK-MEL-28
A498 = test system: A498
EKVX = test system: EKVX
PC-3 = test system: PC-3
CAKI-1 = test system: CAKI-1
SF-295 = test system: SF-295
HCT-15 = test system: HCT-15
SK-MEL-5 = test system: SK-MEL-5
OVCAR-4 = test system: OVCAR-4
SW-620 = test system: SW-620
MDA-MB-231 = test system: MDA-MB-231
NCI-H522 = test system: NCI-H522
COLO 205 = test system: COLO 205
UACC-257 = test system: UACC-257
NCI/ADR-RES = test system: NCI/ADR-RES
MDA-MB-435 = test system: MDA-MB-435

Measured: GI50

O=C(O)c1ccc2c(c1C(=O)O)C(=O)OC2(c1ccc(O)cc1)c1ccc(O)cc1
> 100 µM: HCT-15
inactive: HCT-116 > 100 µM | IGROV-1 > 100 µM | Malme-3M > 100 µM | HT-29 > 100 µM | SK-MEL-28 > 100 µM | A498 > 100 µM | EKVX > 100 µM | PC-3 > 100 µM | CAKI-1 > 100 µM | SF-295 > 100 µM | SK-MEL-5 > 100 µM | OVCAR-4 > 100 µM | SW-620 > 100 µM | MDA-MB-231 > 100 µM | NCI-H522 > 100 µM | COLO 205 > 100 µM | UACC-257 > 100 µM | NCI/ADR-RES > 100 µM | MDA-MB-435 > 100 µM

CC1(C)[C@@H]2CC[C@@]1(C)C1(S[S+]1[O-])C21Cc2ccccc2C1 (stereo not given in full)
22.6 µM: HCT-15
inactive: HCT-116 14.7 µM | IGROV-1 17.2 µM | Malme-3M 38.8 µM | HT-29 17.9 µM | SK-MEL-28 23.1 µM | A498 28.7 µM | EKVX 23.8 µM | PC-3 17.9 µM | CAKI-1 20.4 µM | SF-295 57.1 µM | SK-MEL-5 > 10 µM | OVCAR-4 15.6 µM | SW-620 14.7 µM | MDA-MB-231 17.3 µM | NCI-H522 15.8 µM | COLO 205 30.6 µM | UACC-257 20.9 µM | NCI/ADR-RES 25.6 µM | MDA-MB-435 29.4 µM

CC[C@H](C)[C@H](NC(=O)[C@@]1(O)[C@H](O)[C@]2(CC)C=CCN3CC[C@@]4(c5cc(Br)c(OC)cc5N(C)[C@@H]14)[C@@H]32)C(=O)OC
inactive: HCT-116 25.5 µM | IGROV-1 26.3 µM | Malme-3M 21.9 µM | HT-29 11.6 µM | SK-MEL-28 13.2 µM | A498 25.3 µM | EKVX 40.2 µM | PC-3 76.7 µM | CAKI-1 22.5 µM | SF-295 33.8 µM | SK-MEL-5 24.4 µM | OVCAR-4 4.84 µM | SW-620 29 µM | MDA-MB-231 15.7 µM | NCI-H522 27.5 µM | COLO 205 14 µM | UACC-257 24.9 µM | NCI/ADR-RES 57.8 µM | MDA-MB-435 20.5 µM
25.7 µM: HCT-15

COc1ccc(/C=C/c2cnnc3ccccc23)cc1OC
> 10 µM: HCT-15
inactive: HCT-116 > 10 µM | IGROV-1 > 10 µM | Malme-3M > 10 µM | HT-29 > 10 µM | SK-MEL-28 > 10 µM | A498 > 10 µM | EKVX > 10 µM | PC-3 > 10 µM | CAKI-1 > 10 µM | SF-295 > 10 µM | SK-MEL-5 > 10 µM | OVCAR-4 > 10 µM | SW-620 > 10 µM | MDA-MB-231 > 10 µM | NCI-H522 > 10 µM | COLO 205 > 10 µM | UACC-257 > 10 µM | NCI/ADR-RES > 10 µM | MDA-MB-435 > 10 µM

Cc1cc(C)c2c(SCc3ccc(Cl)cc3Cl)nc(N)nc2n1
> 100 µM: HCT-15
inactive: HCT-116 27 µM | IGROV-1 28.7 µM | Malme-3M 32 µM | HT-29 > 100 µM | SK-MEL-28 > 100 µM | A498 > 100 µM | EKVX > 100 µM | PC-3 35.6 µM | CAKI-1 > 100 µM | SF-295 > 100 µM | SK-MEL-5 > 100 µM | OVCAR-4 > 100 µM | SW-620 > 100 µM | MDA-MB-231 > 100 µM | NCI-H522 15.5 µM | COLO 205 34.8 µM | UACC-257 4.6 µM | NCI/ADR-RES > 100 µM | MDA-MB-435 83 µM
